Molecular target: human GPR40 receptor (Homo sapiens, UniProt O14842)
Assay: Assay I: IP1 accumulation (IPOne HTRF) in 1321N1 cells stably expressing human GPR40
Format: cell-based
Conditions: 1321N1 cells expressing human GPR40, stimulation 1 hour at 37° C., 10% CO2, final LiCl 50 mM
Method: IP1 accumulation measurements using the IPOne assay system—1321N1 cells stably expressing human GPR40 receptor (Euroscreen, Belgium) are seeded 24 h before the assay in black clear-bottom collagen-coated 384-well plates in culture medium containing 10% FCS, 1% Na-Pyruvate and 400 μg/mL G418. IP1 is assayed according to the Manufacturers description (Cisbio Bioassays, France). In brief, the assay is started by substitution of the culture medium by stimulation buffer (Hepes 10 mM, CaCl2 1 mM, MgCl2 0.5 mM, KCl 4.2 mM, NaCl 146 mM and glucose 5.5 mM, pH 7.4) without LiCl. Cells are stimulated for 1 hour at 37° C., 10% CO2 by addition of the compounds that are diluted in stimulation buffer containing LiCl yielding a final LiCl concentration of 50 mM. Assays are stopped by adding HTRF-conjugates (IP1-d2 and Anti-IP1 cryptate Tb) and lysis buffer, provided by the manufacturer. After an incubation time of 1 hour at room temperature plates are measured using an EnVision™, Perkin Elmer. The obtained fluorescence ratios at 665/615 nM are then used to calculate the pEC50 values using GraphPad Prism 5 (Graphpad Software Inc, USA) by interpolation using an IP1 reference curve and subsequent sigmoidal curve fitting allowing for a variable hill slope.

human GPR40 receptor, sequence (O14842 whole entry): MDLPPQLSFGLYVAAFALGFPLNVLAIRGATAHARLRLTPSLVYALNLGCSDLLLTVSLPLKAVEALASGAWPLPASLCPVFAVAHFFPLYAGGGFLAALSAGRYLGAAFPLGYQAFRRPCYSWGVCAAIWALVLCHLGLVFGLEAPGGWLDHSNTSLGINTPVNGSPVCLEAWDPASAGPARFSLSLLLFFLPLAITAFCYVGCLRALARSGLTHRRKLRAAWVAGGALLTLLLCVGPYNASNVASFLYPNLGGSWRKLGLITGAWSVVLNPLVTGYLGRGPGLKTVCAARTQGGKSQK

SMILES	EC50
COc1cc(COc2cc(C)c(-c3ccc(F)c4c3CC[C@H]4Oc3ccc4c(c3)OC[C@H]4CC(=O)O)c(C)c2)ccn1 [Example 147, 2-((S)-6-((R)-7-fluoro-4-(4-((2-methoxypyridin-4-yl)methoxy)-2,6-dimethylphenyl)-2,3-dihydro-1H-inden-1-yloxy)-2,3-dihydrobenzofuran-3-yl)acetic acid]	2 nM
Cc1cc(OCC2CN(S(C)(=O)=O)C2)cc(C)c1-c1ccc(F)c2c1CC[C@H]2Oc1ccc2c(c1)OC[C@H]2CC(=O)O [Example 29, 2-((S)-6-((R)-4-(2,6-Dimethyl-4-((1-(methylsulfonyl)azetidin-3-yl)methoxy)phenyl)-7-fluoro-2,3-dihydro-1H-inden-1-yloxy)-2,3-dihydrobenzofuran-3-yl)acetic acid]	11 nM
Cc1cc(OCCN2CCCC2=O)cc(C)c1-c1ccc(F)c2c1CC[C@H]2Oc1ccc2c(c1)OC[C@H]2CC(=O)O [Example 23, 2-((S)-6-((R)-4-(2,6-Dimethyl-4-(2-(2-oxopyrrolidin-1-yl)ethoxy)phenyl)-7-fluoro-2,3-dihydro-1H-inden-1-yloxy)-2,3-dihydrobenzofuran-3-yl)acetic acid]	10 nM
Cc1cc(OCCCS(C)(=O)=O)cc(C)c1-c1ccc(F)c2c1CC[C@H]2Oc1ccc2c(c1)OC[C@H]2CC(=O)O [Example 57, 2-((S)-6-((R)-4-(2,6-Dimethyl-4-(3-(methylsulfonyl)propoxy)phenyl)-7-fluoro-2,3-dihydro-1H-inden-1-yloxy)-2,3-dihydrobenzofuran-3-yl)acetic acid]	26 nM
Cc1cc(OC2CCS(=O)(=O)CC2)cc(C)c1-c1ccc(F)c2c1CC[C@H]2Oc1ccc2c(c1)OC[C@H]2CC(=O)O [Example 32, 2-((S)-6-((R)-4-(2,6-Dimethyl-4-(1,1-dioxo-tetrahydro-2H-thiopyran-4-yloxy)phenyl)-7-fluoro-2,3-dihydro-1H-inden-1-yloxy)-2,3-dihydrobenzofuran-3-yl)acetic acid]	26 nM
Cc1cc(OCC2CN(S(=O)(=O)C(C)C)C2)cc(C)c1-c1ccc(F)c2c1CC[C@H]2Oc1ccc2c(c1)OC[C@H]2CC(=O)O [Example 31, 2-((S)-6-((R)-7-Fluoro-4-(4-((1-(isopropylsulfonyl)azetidin-3-yl)methoxy)-2,6-dimethylphenyl)-2,3-dihydro-1H-inden-1-yloxy)-2,3-dihydrobenzofuran-3-yl)acetic acid]	17 nM
Cc1c(OCCCS(C)(=O)=O)cccc1-c1ccc(F)c2c1CC[C@H]2Oc1ccc2c(c1)OC[C@H]2CC(=O)O [Example 58, 2-((3S)-6-((1R)-7-Fluoro-4-(2-methyl-3-(3-(methylsulfonyl)propoxy)phenyl)-2,3-dihydro-1H-inden-1-yloxy)-2,3-dihydrobenzofuran-3-yl)acetic acid]	58 nM
Cc1cc(C2=CCN(S(C)(=O)=O)CC2)cc(C)c1-c1ccc(F)c2c1CC[C@H]2Oc1ccc2c(c1)OC[C@H]2CC(=O)O [Example 25, 2-((S)-6-((R)-4-(2,6-dimethyl-4-(1-(methylsulfonyl)-1,2,3,6-tetrahydropyridin-4-yl)phenyl)-7-fluoro-2,3-dihydro-1H-inden-1-yloxy)-2,3-dihydrobenzofuran-3-yl)acetic acid]	35 nM
Cc1cc(OCC2(C)CN(S(C)(=O)=O)C2)cc(C)c1-c1ccc(F)c2c1CC[C@H]2Oc1ccc2c(c1)OC[C@H]2CC(=O)O [Example 39, ((S)-6-{(R)-7-Fluoro-4-[4-(1-methanesulfonyl-3-methyl-azetidin-3-ylmethoxy)-2,6-dimethyl-phenyl]-indan-1-yloxy}-2,3-dihydro-benzofuran-3-yl)-acetic acid]	8 nM
Cc1cc(OCC2(C)COC2)cc(C)c1-c1ccc(F)c2c1CC[C@H]2Oc1ccc2c(c1)OC[C@H]2CC(=O)O [Example 1, 2-((S)-6-((R)-4-(2,6-dimethyl-4-((3-methyloxetan-3-yl)methoxy)phenyl)-7-fluoro-2,3-dihydro-1H-inden-1-yloxy)-2,3-dihydrobenzofuran-3-yl)acetic acid]	4 nM
Cc1cc(O[C@H]2C[C@@H](N(C)S(C)(=O)=O)C2)cc(C)c1-c1ccc(F)c2c1CC[C@H]2Oc1ccc2c(c1)OC[C@H]2CC(=O)O [Example 33, 2-((S)-6-((R)-4-(2,6-Dimethyl-4-((1s,3S)-3-(N-methylmethylsulfonamido)cyclobutoxy)phenyl)-7-fluoro-2,3-dihydro-1H-inden-1-yloxy)-2,3-dihydrobenzofuran-3-yl)acetic acid]	12 nM
Cc1c(C(N)=O)cccc1-c1ccc(F)c2c1CC[C@H]2Oc1ccc2c(c1)OC[C@H]2CC(=O)O [Example 59, 2-((3S)-6-((1R)-4-(3-Carbamoyl-2-methylphenyl)-7-fluoro-2,3-dihydro-1H-inden-1-yloxy)-2,3-dihydrobenzofuran-3-yl)acetic acid]	117 nM
Cc1cc(OCC(=O)N(C)C)cc(C)c1-c1ccc(F)c2c1CC[C@H]2Oc1ccc2c(c1)OC[C@H]2CC(=O)O [Example 13, 2-((S)-6-((R)-4-(4-(2-(Dimethylamino)-2-oxoethoxy)-2,6-dimethylphenyl)-7-fluoro-2,3-dihydro-1H-inden-1-yloxy)-2,3-dihydrobenzofuran-3-yl)acetic acid]	63 nM
Cc1cc(OCC2CCS(=O)(=O)CC2)cc(C)c1-c1ccc(F)c2c1CC[C@H]2Oc1ccc2c(c1)OC[C@H]2CC(=O)O [Example 28, 2-((S)-6-((R)-4-(2,6-Dimethyl-4-((1,1-dioxo-tetrahydro-2H-thiopyran-4-yl)methoxy)phenyl)-7-fluoro-2,3-dihydro-1H-inden-1-yloxy)-2,3-dihydrobenzofuran-3-yl)acetic acid]	6 nM
Cc1cc(OCCC(C)(C)O)cc(C)c1-c1ccc(F)c2c1CC[C@H]2Oc1ccc2c(c1)OC[C@H]2CC(=O)O [Example 4, 2-((S)-6-((R)-7-Fluoro-4-(4-(3-hydroxy-3-methylbutoxy)-2,6-dimethylphenyl)-2,3-dihydro-1H-inden-1-yloxy)-2,3-dihydrobenzofuran-3-yl)acetic acid]	5 nM
CNC(=O)COc1cc(C)c(-c2ccc(F)c3c2CC[C@H]3Oc2ccc3c(c2)OC[C@H]3CC(=O)O)c(C)c1 [Example 12, 2-((S)-6-((R)-4-(2,6-Dimethyl-4-(2-(methylamino)-2-oxoethoxy)phenyl)-7-fluoro-2,3-dihydro-1H-inden-1-yloxy)-2,3-dihydrobenzofuran-3-yl)acetic acid]	12 nM
Cc1c(OC2CCS(=O)(=O)CC2)cccc1-c1ccc(F)c2c1CC[C@H]2Oc1ccc2c(c1)OC[C@H]2CC(=O)O [Example 38, ((S)-6-{(R)-4-[3-(1,1-Dioxo-hexahydro-1-thiopyran-4-yloxy)-2-methyl-phenyl]-7-fluoro-indan-1-yloxy}-2,3-dihydro-benzofuran-3-yl)-acetic acid]	76 nM
Cc1cc(OC(C)(C)C#N)cc(C)c1-c1ccc(F)c2c1CC[C@H]2Oc1ccc2c(c1)OC[C@H]2CC(=O)O [Example 21, 2-((S)-6-((R)-4-(4-(2-Cyanopropan-2-yloxy)-2,6-dimethylphenyl)-7-fluoro-2,3-dihydro-1H-inden-1-yloxy)-2,3-dihydrobenzofuran-3-yl)acetic acid]	9 nM
Cc1cc(C(=O)N(C)C)cc(C)c1-c1ccc(F)c2c1CC[C@H]2Oc1ccc2c(c1)OC[C@H]2CC(=O)O [Example 61, 2-((S)-6-((R)-4-(4-(Dimethylcarbamoyl)-2,6-dimethylphenyl)-7-fluoro-2,3-dihydro-1H-inden-1-yloxy)-2,3-dihydrobenzofuran-3-yl)acetic acid]	51 nM
